The record followed here is article PMC6754432, “Radiochemical examination of transthyretin (TTR) brain penetration assisted by iododiflunisal, a TTR tetramer stabilizer and a new candidate drug for AD” (Scientific Reports, 2019).

One series has as its target T1, TTR (Homo sapiens, UniProt P02766).
T1 construct: made in house
The series is described as follows: Displacement of bound [131I]IDIF from TTR-[131I]IDIF complex by non-labeled IDIF. To be noted: concentrations over 50 μM of IDIF, TTR complex 0.11 μM, overnight 4 °C. In kind it is binding. The protocol:
Likewise, the preparation of [^131I]TTR-IDIF was carried out under adequate conditions to ensure that all the [^131I]TTR was stabilized with IDIF. This is extremely important because the separation of [^131I]TTR from [^131I]TTR-IDIF is unfeasible using chromatographic techniques. […] It was observed that a concentration of IDIF = 50 µM displaced > 99% of bound [^131I]IDIF.
First, the TTR/IDIF relative amount to achieve complete formation of the complex was determined. With that aim, six 100 μL aliquots of the [^131I]IDIF-TTR complex prepared as described above were incubated overnight (T = 4 °C) with different amounts of non-radioactive IDIF in 100 μL TNE buffer (final concentrations of IDIF = 0.88, 2.63, 8.76, 17.5, 52.5 and 175 μM, respectively; final concentration of TTR as TTR-[^131I]IDIF complex = 0.11 μM). After incubation, the samples were eluted through illustra^TM NAP-5 columns (GE Healthcare, USA) and radioactivity corresponding to the collected fractions of free [^131I]IDIF and TTR-[^131I]IDIF complex were compared to determine the proportion of [^131I]IDIF free and bound to TTR. For concentrations over 50 μM of IDIF, the displacement was > 97%.

Series [1] in a line: Ex vivo biodistribution by dissection and gamma counting after intravenous administration. To be noted: i.v., mice. Format: in vivo. The protocol:
The biodistribution of [^131I]TTR after intravenous administration in wild type mice was first investigated. With that aim, animals (n = 3 per time point) were administered with the radiotracer and sacrificed by exsanguination at pre-defined time points. Major organs were harvested together with blood and urine and the amount of radioactivity was determined by gamma counting. (Fig. 2, red bars).
Animals (n = 3 per compound and time point) were anesthetized with isoflurane 5% in pure oxygen and a solution containing [^131I]TTR, [^131I]IDIF, [^131I]TTR-IDIF complex or TTR-[^131I]IDIF complex (0.9 ± 0.4 MBq/120 μl) was injected through one of the lateral tail veins. Animals were recovered from anaesthesia and at pre-determined time points (t = 5, and 15 min and 1, 6 and 24 h), animals were sacrificed by perfusion using saline solution and kidneys, spleen, liver, small intestine, and brain were quickly removed and rinsed with water. The amount of activity in each organ was measured in an automatic gamma counter (2470 Wizard, PerkinElmer). Urine and blood samples were obtained just before perfusion. Part of the blood was processed to separate the plasma, which was also counted in the gamma counter.
For dissection and gamma counting experiments to assess biodistribution, values obtained for different compounds at each time point and organ were compared using t-student test, comparison of two independent means, using the GraphPad Prism software (version 7.03).

For `O=C(O)c1cc(-c2ccc(F)cc2F)cc(I)c1O` [IDIF, iododiflunisal], the “displacement of [131I]IDIF” value at TTR was above 97%.

Take `O=C(O)c1cc(-c2ccc(F)cc2F)cc([131I])c1O` [[^131I]IDIF, [^131I]iododiflunisal]: in series [1] (blood, t = 5 min, n = 3), the “percentage of injected dose per gram of blood” value is on record as 23.3 ± 7.6 %ID/g. Further, the “maximum value in brain” value in series [1] (brain, 1 h after administration) was determined as 0.05 %ID/g. Also, in series [1] (kidneys, t = 5 min), the accumulation in kidneys was found to be 14.9 ± 3.0 % ID/g. Further, the accumulation in liver in series [1] (liver, t = 5 min) was found to be 20.0 ± 5.5 % ID/g. Moreover, the “accumulation in small intestine (peak)” value in series [1] (small intestine, peak at t = 1–6 h) was “ca. 15 % ID/g”.
